Data published in patent US20220056019A1, “FARNESOID X RECEPTOR AGONISTS AND USES THEREOF” (Metacrine, Inc., priority 2018, published 2022).

What follows are molecules tested against T1, hFXR (Homo sapiens, UniProt Q96RI1) (assay: In Vitro FXR Assay (TK): TK-ECRE-luc reporter in transfected CV-1 cells). Conditions: 18 hrs incubation, luminescence.
T1 construct: expressed in transfected cells; host or cells: CV-1 cells
T1 sequence (Q96RI1 1-486): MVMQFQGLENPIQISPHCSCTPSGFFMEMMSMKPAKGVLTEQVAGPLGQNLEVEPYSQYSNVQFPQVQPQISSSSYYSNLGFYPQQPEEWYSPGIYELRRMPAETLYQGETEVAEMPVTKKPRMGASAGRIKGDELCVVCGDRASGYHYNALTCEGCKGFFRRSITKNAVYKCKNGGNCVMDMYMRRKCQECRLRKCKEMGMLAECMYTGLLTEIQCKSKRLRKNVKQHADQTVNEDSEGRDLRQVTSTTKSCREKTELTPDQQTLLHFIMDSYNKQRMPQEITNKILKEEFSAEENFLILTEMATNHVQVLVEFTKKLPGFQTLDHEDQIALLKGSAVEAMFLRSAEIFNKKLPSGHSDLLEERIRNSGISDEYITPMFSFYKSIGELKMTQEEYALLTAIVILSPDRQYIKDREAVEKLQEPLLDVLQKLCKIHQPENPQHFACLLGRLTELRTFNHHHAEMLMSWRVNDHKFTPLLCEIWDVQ
T1 sequence (P19793 1-462 partner): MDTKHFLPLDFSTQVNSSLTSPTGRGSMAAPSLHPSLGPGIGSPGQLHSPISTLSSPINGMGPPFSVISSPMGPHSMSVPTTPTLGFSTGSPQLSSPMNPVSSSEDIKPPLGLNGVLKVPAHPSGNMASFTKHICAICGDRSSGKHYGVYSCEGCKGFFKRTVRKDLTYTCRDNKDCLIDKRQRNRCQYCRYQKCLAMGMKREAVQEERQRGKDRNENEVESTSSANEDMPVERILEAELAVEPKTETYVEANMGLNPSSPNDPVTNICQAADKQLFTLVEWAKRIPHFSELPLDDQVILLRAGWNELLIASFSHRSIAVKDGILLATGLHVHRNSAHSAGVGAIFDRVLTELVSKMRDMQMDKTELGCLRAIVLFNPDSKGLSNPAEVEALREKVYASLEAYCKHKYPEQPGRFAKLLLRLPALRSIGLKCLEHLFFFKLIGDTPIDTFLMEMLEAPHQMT
Assay type: cell-based
Outline: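 CV-1, DMEM/10% charcoal-stripped FBS, 37 °C 5% CO2. Transfection O/N: hFXR + hRXR + TK-ECRE-luc + pCMX-YFP. Cpds (DMSO serial dil.) 18 h; lyse, read luminescence.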

Compound | EC50 [nM]
COC(=O)N[C@H]1CC[C@H](C(=O)N(C[C@H]2CC[C@H](c3ccc(OC)c(C)c3)CC2)c2cccc(-c3cnn(C(C)C)c3)c2)CC1 [Compound 6, Methyl (trans-4-((3-(1-isopropyl-1H-pyrazol-4-yl)phenyl)((trans-4-(4-methoxy-3-methylphenyl)cyclohexyl)methyl)carbamoyl)cyclohexyl)carbamate] | ≤ 50
COc1ccc([C@H]2CC[C@H](CN(c3cc(-c4cnn(C(C)C)c4)ccn3)C(=O)[C@H]3CC[C@H](OC(=O)N4CCNCC4)CC3)CC2)cc1C [Compound 2.15, trans-4-((4-(1-Isopropyl-1H-pyrazol-4-yl)pyridin-2-yl) ((trans-4-(4-methoxy-3-methylphenyl)cyclohexyl)methyl)carbamoyl) cyclohexyl piperazine-1-carboxylate] | 50 to 1000
COCCOC(=O)N[C@H]1CC[C@H](C(=O)N(C[C@H]2CC[C@H](c3ccc(OC)c(C)c3)CC2)c2cccc(-c3cnn(C(C)C)c3)c2)CC1 [Compound 6.04, 2-Methoxyethyl (trans-4-((3-(1-isopropyl-1H-pyrazol-4-yl)phenyl)((trans-4-(4-methoxy-3-methylphenyl)cyclohexyl)meth-yl)carbamoyl)cyclohexyl)carbamate] | ≤ 50
COc1ccc([C@H]2CC[C@H](CN(c3cccc(-c4cnn(C(C)C)c4)c3)C(=O)[C@H]3CC[C@H](NC(=O)OCCO)CC3)CC2)cc1C [Compound 6.03, 2-Hydroxyethyl (trans-4-((3-(1-isopropyl-1H-pyrazol-4-yl)phenyl)((trans-4-(4-methoxy-3-methylphenyl)cyclohexyl)meth-yl)carbamoyl)cyclohexyl)carbamate] | ≤ 50
COc1ccc([C@H]2CC[C@H](CN(c3cccc(-c4cnn(C(C)C)c4)c3)C(=O)[C@H]3CC[C@H](OC(=O)NCC(C)F)CC3)CC2)cc1C (stereo partly drawn) [Compound 5.05, trans-4-((3-(1-Isopropyl-1H-pyrazol-4-yl)phenyl)(((trans)-4-(4-methoxy-3-methylphenyl)cyclohexyl)methyl)carbamoyl)cyclohexyl (2-fluoropropyl)carbamate] | ≤ 50
CCn1cc(-c2ccnc(N(C[C@H]3CC[C@H](c4ccc(OC)c(C)c4)CC3)C(=O)[C@H]3CC[C@H](OC(=O)N4CC(O)C4)CC3)c2)cn1 [Compound 2.22, trans-4-((4-(1-Ethyl-1H-pyrazol-4-yl)pyridin-2-yl) ((trans-4-(4-methoxy-3-methylphenyl)cyclohexyl)methyl)carbamoyl) cyclohexyl3-hydroxyazetidine-1-carboxylate] | ≤ 50
COc1ccc([C@H]2CC[C@H](CN(c3cc(-c4cc(C(C)C)on4)ccn3)C(=O)[C@H]3CC[C@H](OC(=O)N4CC(O)C4)CC3)CC2)cc1C [Compound 2.56, trans-4-((4-(5-Isopropylisoxazol-3-yl)pyridin-2-yl)(((trans)-4-(4-methoxy-3-methylphenyl)cyclohexyl)methyl)carbamoyl)cyclohexyl 3-hydroxyazetidine-1-carboxylate] | ≤ 50
CCS(=O)(=O)NC[C@H]1CC[C@H](C(=O)N(C[C@H]2CC[C@H](c3ccc(OC)c(C)c3)CC2)c2cccc(-c3cnn(C(C)C)c3)c2)CC1 [Compound 12, (trans)-4-(Ethylsulfonamidomethyl)-N-(3-(1-isopropyl-1H-pyrazol-4-yl)phenyl)-N-(((trans)-4-(4-methoxy-3-methylphenyl)cyclohexyl)methyl)cyclohexanecarboxamide] | ≤ 50
COc1ccc(C23CCC(CN(c4cc(-n5cnc(C6CC6)n5)ccn4)C(=O)[C@H]4CC[C@H](OC(=O)N5CC(O)C5)CC4)(CC2)CC3)cc1C [Compound 4.17, 4-((4-(3-Cyclopropyl-1H-t1,2,4-riazol-1-yl)pyridin-2-yl)((4-(4-methoxy-3-methylphenyl)bicyclo [2.2.2]octan-1-yl)methyl)carbamoyl)cyclohexyl 3-hydroxyazetidine-trans-1-carboxylate] | ≤ 50
COc1ccc(C23CCC(CN(c4cc(-c5cnc(C6CC6)s5)ccn4)C(=O)[C@H]4CC[C@H](NC(=O)CO)CC4)(CC2)CC3)cc1C [Compound 9.08, (trans)-N-(4-(2-Cyclopropylthiazol-5-yl)pyridin-2-yl)-4-(2-hydroxyacetamido)-N-((4-(4-methoxy-3-methylphenyl)bicyclo[2.2.]octan-1-yl)methyl)cyclohexanecarboxamide] | ≤ 50
COc1ccc([C@H]2CC[C@H](CN(c3cc(-c4cnc(C5CC5)s4)ccn3)C(=O)[C@H]3CC[C@H](OC(=O)NC4COC4)CC3)CC2)cc1C [Compound 2.54, trans-4-((4-(2-Cyclopropylthiazol-5-yl)pyridin-2-yl)(((trans)-4-(4-methoxy-3-methylphenyl)cyclohexyl)methyl)carbamoyl)cyclohexyl oxetan-3-ylcarbamate] | ≤ 50
COc1ccc([C@H]2CC[C@H](CN(c3cccc(-c4cnn(C(C)C)c4)c3)C(=O)[C@H]3CC[C@H](OC(=O)NC(C)C)CC3)CC2)cc1C [Compound 5.10, trans-4-((3-(1-Isopropyl-1H-pyrazol-4-yl)phenyl)((trans-4-(4-methoxy-3-methylphenyl)cyclohexyl)methyl)carbamoyl)cyclohexyl isopropylcarbamate] | ≤ 50
COc1ccc([C@H]2CC[C@H](CN(c3cccc(-c4cnn(C(C)C)c4)c3)C(=O)[C@H]3CC[C@H](OC(=O)N4CCN(C)CC4)CC3)CC2)cc1C [Compound 5.11, trans-4-((3-(1-Isopropyl-1H-pyrazol-4-yl)phenyl)((trans-4-(4-methoxy-3-methylphenyl)cyclohexyl)methyl)carbamoyl)cyclohexyl 4-methylpiperazine-1-carboxylate] | ≤ 50

Results, then the molecule that gave them:

EC50 [nM] | Compound
≤ 50 | COc1ccc([C@H]2CC[C@H](CN(c3cccc(-c4cnn(C5CC5)c4)c3)C(=O)[C@H]3CC[C@H](C(C)O)CC3)CC2)cc1C (stereo partly drawn) [Compound 21, trans-N-(3-(1-Cyclopropyl-1H-pyrazol-4-yl)phenyl)-4-(1-hydroxyethyl)-N-((trans-4-(4-methoxy-3-methylphenyl)cyclohexyl)methyl)cyclohexanecarboxamide]
≤ 50 | COc1ccc(C23CCC(CN(c4cc(-c5cnn(C6(C)CCC6)c5)ccn4)C(=O)[C@H]4CC[C@H](OC(=O)N5CC(CS(C)(=O)=O)C5)CC4)(CC2)CC3)cc1C [Compound 25.20, 4-(((4-(4-Methoxy-3-methylphenyl)bicyclo[2.2.2]octan-1-yl)methyl)(4-(1-(1-methylcyclobutyl)-1H-pyrazol-4-yl)pyridin-2-yl)carbamoyl)(trans-cyclohexyl) 3-((methysulfonyl)methyl)azetidine-1-carboxylate]
≤ 50 | COc1ccc(C23CCC(CN(c4cc(-c5coc(C(C)C)n5)ccn4)C(=O)[C@H]4CC[C@H](OC(=O)NCCCO)CC4)(CC2)CC3)cc1C [Compound 23.02, 4-((4-(2-Isopropyloxazol-4-yl)pyridin-2-yl)((4-(4-methoxy-3-methylphenyl)bicyclo[2.2.2]octan-1-yl)methyl)carbamoyl)(trans-cyclohexyl)(3-hydroxypropyl)carbamate]
50 to 1000 | COc1ccc([C@H]2CC[C@H](CN(c3cccc(-c4cnn(C(C)C)c4)c3)C(=O)[C@H]3CC[C@H](CNC(=O)OC(C)C)CC3)CC2)cc1C [Compound 12.05, Isopropyl (((trans)-4-((3-(1-isopropyl-1H-pyrazol-4-yl)phenyl)(((trans)-4-(4-methoxy-3-methylphenyl)cyclohexyl)methyl)carbamoyl)cyclohexyl)methyl)car-bamate]
≤ 50 | COc1ccc(C23CCC(CN(c4cc(-c5noc(C(C)C)n5)ccn4)C(=O)[C@H]4CC[C@H](OC(=O)N5CC(O)C5)CC4)(CC2)CC3)cc1C [Compound 26.14, 4-((4-(5-Isopropyl-1,2,4-oxadiazol-3-yl)pyridin-2-yl)((4-(4-methoxy-3-methylphenyl)bicyclo[2.2.2]octan-1-yl)methyl)carbamoyl)cyclohexyl trans-3-hydroxyazetidine-1-carboxylate]
≤ 50 | COc1ccc(C23CCC(CN(c4cc(-c5cnn(C6CCC6)c5)ccn4)C(=O)[C@H]4CC[C@H](OC(=O)N5CC(O)C5)CC4)(CC2)CC3)cc1C [Compound 23.08, 4-((4-(1-Cyclobutyl-1H-pyrazol-4-yl)pyridin-2-yl)((4-(4-methoxy-3-methylphenyl)bicyclo[2.2.2]octan-1-yl)methyl)carbamoyl)(trans-cyclohexyl) 3-hydroxyazetidine-1-carboxylate]
